This note sets out measurements from US9073855B2, “BCL-2 selective apoptosis-inducing agents for the treatment of cancer and immune diseases” (AbbVie Inc., priority 2008, dated 2015).

One assay concerns the target GST-Bcl-2 (Homo sapiens, UniProt P10415). As to the kind of experiment: TR-FRET binding assay, GST-Bcl-2 with F-Bak peptide probe. As to conditions: for Ki: TR-FRET Binding Affinity, GST-Bcl-2, F-Bak peptide probe. The method in brief:
(§1)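 Compounds were serially diluted in DMSO from a 50 μM starting solution (2× the starting concentration; 10% DMSO). Plates were incubated for 3 h at room temperature, and TR-FRET was read with 340/35 nm excitation and emission at 520/525 nm (F-Bak) and 495/510 nm (Tb antibody). Ki values were calculated using Wang's competitive-binding equation.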
Background: In TR-FRET formats the signal depends on donor and acceptor labels being close together.

In the next assay the target is GST-Bcl-XL (Homo sapiens, UniProt Q07817). As to the kind of experiment: TR-FRET binding assay, GST-Bcl-XL with F-Bak peptide probe. As to conditions: TR-FRET Binding Affinity, GST-Bcl-XL, F-Bak peptide probe. The method in brief:
as §1

The next assay concerns FL5.12/Bcl-2 cells. The experiment in a line: FL5.12/Bcl-2 cell viability assay under IL-3 withdrawal (CellTitre Glo). Format: cell-based, murine. As to conditions: Mus musculus, IL-3 withdrawn 48 hrs, then 24 hrs with compound. The method in brief: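 IL-3 withdrawal 48 hrs (no WEHI-3B medium), then compound 24 hrs, various concentrations; 37° C, 5% CO2; readout CellTitre Glo. Murine prolymphocytic FL5.12 stably overexpressing Bcl-2.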

GST-Bcl-2, sequence (P10415 whole entry): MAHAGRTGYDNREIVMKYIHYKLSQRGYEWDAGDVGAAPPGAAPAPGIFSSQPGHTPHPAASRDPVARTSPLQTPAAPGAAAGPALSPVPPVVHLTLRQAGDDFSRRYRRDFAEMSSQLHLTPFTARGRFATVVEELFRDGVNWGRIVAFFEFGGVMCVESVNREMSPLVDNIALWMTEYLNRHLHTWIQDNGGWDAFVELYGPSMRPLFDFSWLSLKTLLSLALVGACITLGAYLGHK
GST-Bcl-XL, sequence (Q07817 whole entry): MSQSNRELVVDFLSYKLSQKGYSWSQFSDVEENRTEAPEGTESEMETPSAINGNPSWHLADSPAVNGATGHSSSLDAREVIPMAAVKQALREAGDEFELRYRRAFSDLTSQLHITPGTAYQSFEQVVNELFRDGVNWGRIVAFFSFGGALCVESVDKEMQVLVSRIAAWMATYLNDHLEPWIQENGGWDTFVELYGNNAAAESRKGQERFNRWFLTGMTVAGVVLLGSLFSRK

By Ki is commonly meant the dissociation constant of the complex between target and ligand, obtained from inhibition or displacement. By EC50 is commonly meant the concentration at which the effect is half-maximal. As to `COCCCNc1ccc(S(=O)(=O)NC(=O)c2ccc(N3CCN(CC4=C(c5ccc(Cl)cc5)CC(C)(C)CC4)CC3)cc2Oc2cccc3[nH]ccc23)cc1[N+](=O)[O-]` [Example 318, 4-(4-{[2-(4-chlorophenyl)-4,4-dimethylcyclohex-1-en-1-yl]methyl}piperazin-1-yl)-2-(1H-indol-4-yloxy)-N-({4-[(3-methoxypropyl)amino]-3-nitrophenyl}sulfonyl)benzamide], the Ki amounted to 1.47 nM at GST-Bcl-2 and 151 nM at GST-Bcl-XL. In addition, the EC50 in the assay with FL5.12/Bcl-2 cells worked out at 77 nM.
Turning to `CC1(C)CCC(CN2CCN(c3ccc(C(=O)NS(=O)(=O)c4ccc(NCCC#N)c([N+](=O)[O-])c4)c(Oc4ccc5[nH]ccc5c4)c3)CC2)=C(c2ccc(Cl)cc2)C1` [Example 319, 4-(4-{[2-(4-chlorophenyl)-4,4-dimethylcyclohex-1-en-1-yl]methyl}piperazin-1-yl)-N-({4-[(2-cyanoethyl)amino]-3-nitrophenyl}sulfonyl)-2-(1H-indol-5-yloxy)benzamide], the Ki was 0.413 nM on GST-Bcl-2 and 208 nM at GST-Bcl-XL. Also, the EC50 in the assay on FL5.12/Bcl-2 cells amounted to 31.4 nM.
Turning to `CC1(C)CCC(CN2CCN(c3ccc(C(=O)NS(=O)(=O)c4ccc(NCCC#N)c([N+](=O)[O-])c4)c(Oc4cccc5[nH]ccc45)c3)CC2)=C(c2ccc(Cl)cc2)C1` [Example 320, 4-(4-{[2-(4-chlorophenyl)-4,4-dimethylcyclohex-1-en-1-yl]methyl}piperazin-1-yl)-N-({4-[(2-cyanoethyl)amino]-3-nitrophenyl}sulfonyl)-2-(1H-indol-4-yloxy)benzamide], the figures for the Ki at GST-Bcl-2 and on GST-Bcl-XL were 1.24 nM and 129 nM, respectively. The EC50 in the assay on FL5.12/Bcl-2 cells was 41.6 nM.
For `CC1(C)CCC(CN2CCN(c3ccc(C(=O)NS(=O)(=O)c4ccc(NCC56CC7CC(C5)C(O)[C@H](C7)C6)c([N+](=O)[O-])c4)c(Oc4ccc5[nH]ccc5c4)c3)CC2)=C(c2ccc(Cl)cc2)C1` (stereo partly drawn) [Example 321, 4-(4-{[2-(4-chlorophenyl)-4,4-dimethylcyclohex-1-en-1-yl]methyl}piperazin-1-yl)-N-{[4-({[(3R)-4-hydroxy-1-adamantyl]methyl}amino)-3-nitrophenyl]sulfonyl}-2-(1H-indol-5-yloxy)benzamide] the same measures were 0.689 nM, over 660 nM and 29.1 nM.
For `CC1(C)CCC(CN2CCN(c3ccc(C(=O)NS(=O)(=O)c4ccc(NCC56CC7CC(C5)C(O)C(C7)C6)c([N+](=O)[O-])c4)c(Oc4ccc5[nH]ccc5c4)c3)CC2)=C(c2ccc(Cl)cc2)C1` (stereo not drawn) [Example 322, 4-(4-{[2-(4-chlorophenyl)-4,4-dimethylcyclohex-1-en-1-yl]methyl}piperazin-1-yl)-N-{[4-({[Cis-4-hydroxy-1-adamantyl]methyl}amino)-3-nitrophenyl]sulfonyl}-2-(1H-indol-5-yloxy)benzamide], the figures for the Ki at GST-Bcl-2 and on GST-Bcl-XL were 0.184 nM and over 660 nM, respectively. Further, at GST-Bcl-2 (ratio of TR-FRET Ki values, Bcl-XL over Bcl-2), the “Binding selectivity ratio (Bcl-XL Ki/Bcl-2 Ki)” value was over 3591.4. Besides, the EC50 in the assay on FL5.12/Bcl-2 cells came out at 44.5 nM.
In the case of `CC1(C)CCC(CN2CCN(c3ccc(C(=O)NS(=O)(=O)c4ccc(NCCC(F)(F)F)c([N+](=O)[O-])c4)c(Oc4cccc5[nH]ccc45)c3)CC2)=C(c2ccc(Cl)cc2)C1` [Example 323, 4-(4-{[2-(4-chlorophenyl)-4,4-dimethylcyclohex-1-en-1-yl]methyl}piperazin-1-yl)-2-(1H-indol-4-yloxy)-N-({3-nitro-4-[(3,3,3-trifluoropropyl)amino]phenyl}sulfonyl)benzamide], the Ki is 0.949 nM at GST-Bcl-2 and over 660 nM at GST-Bcl-XL. Moreover, the concentration giving a half-maximal response (EC50) in the assay with FL5.12/Bcl-2 cells turned out to be 92.1 nM.
`CC1(C)CCC(CN2CCN(c3ccc(C(=O)NS(=O)(=O)c4ccc(NCCC(F)(F)F)c([N+](=O)[O-])c4)c(Oc4ccc5[nH]ccc5c4)c3)CC2)=C(c2ccc(Cl)cc2)C1` [Example 324, 4-(4-{[2-(4-chlorophenyl)-4,4-dimethylcyclohex-1-en-1-yl]methyl}piperazin-1-yl)-2-(1H-indol-5-yloxy)-N-({3-nitro-4-[(3,3,3-trifluoropropyl)amino]phenyl}sulfonyl)benzamide]: the inhibition constant Ki was 1.48 nM on GST-Bcl-2 and over 660 nM on GST-Bcl-XL. Also, the EC50 in the assay with FL5.12/Bcl-2 cells was 134 nM.
Consider `CC1(C)CCC(CN2CCN(c3ccc(C(=O)NS(=O)(=O)c4cnc(NCC5CCOCC5)c(Br)c4)c(Oc4cccc5[nH]ccc45)c3)CC2)=C(c2ccc(Cl)cc2)C1` [Example 325, N-({5-bromo-6-[(tetrahydro-2H-pyran-4-ylmethyl)amino]pyridin-3-yl}sulfonyl)-4-(4-{[2-(4-chlorophenyl)-4,4-dimethylcyclohex-1-en-1-yl]methyl}piperazin-1-yl)-2-(1H-indol-4-yloxy)benzamide], for which the Ki at GST-Bcl-2 was 2.33 nM; on GST-Bcl-XL, over 660 nM. In the assay on FL5.12/Bcl-2 cells, the EC50 was determined as 256 nM.
For `CC1(C)CCC(CN2CCN(c3ccc(C(=O)NS(=O)(=O)c4ccc(NCC5CCS(=O)(=O)C5)c([N+](=O)[O-])c4)c(Oc4cccc5[nH]ccc45)c3)CC2)=C(c2ccc(Cl)cc2)C1` (stereo not shown) [Example 326, 4-(4-{[2-(4-chlorophenyl)-4,4-dimethylcyclohex-1-en-1-yl]methyl}piperazin-1-yl)-N-[(4-{[(1,1-dioxidotetrahydrothien-3-yl)methyl]amino}-3-nitrophenyl)sulfonyl]-2-(1H-indol-4-yloxy)benzamide] the same measures were 0.116 nM, over 660 nM and 35.1 nM.
Take `CC1(C)CCC(CN2CCN(c3ccc(C(=O)NS(=O)(=O)c4ccc(OCC5(F)CCOCC5)c([N+](=O)[O-])c4)c(Oc4ccc5[nH]ccc5c4)c3)CC2)=C(c2ccc(Cl)cc2)C1` [Example 327, 4-(4-{[2-(4-chlorophenyl)-4,4-dimethylcyclohex-1-en-1-yl]methyl}piperazin-1-yl)-N-({4-[(4-fluorotetrahydro-2H-pyran-4-yl)methoxy]-3-nitrophenyl}sulfonyl)-2-(1H-indol-5-yloxy)benzamide]: the Ki at GST-Bcl-2 was 0.031 nM; on GST-Bcl-XL, 95.6 nM. Further, in the assay with FL5.12/Bcl-2 cells, the EC50 amounted to 6.57 nM.
In the case of `CNc1ccc(S(=O)(=O)NC(=O)c2ccc(N3CCN(CC4=C(c5ccc(Cl)cc5)CC(C)(C)CC4)CC3)cc2Oc2ccc3[nH]ccc3c2)cc1S(=O)(=O)C(F)(F)F` [Example 328, 4-(4-{[2-(4-chlorophenyl)-4,4-dimethylcyclohex-1-en-1-yl]methyl}piperazin-1-yl)-2-(1H-indol-5-yloxy)-N-({4-(methylamino)-3-[(trifluoromethyl)sulfonyl]phenyl}sulfonyl)benzamide], the values for the Ki at GST-Bcl-2 and on GST-Bcl-XL were 1.86 nM and over 660 nM, respectively. In the assay with FL5.12/Bcl-2 cells, the EC50 is over 500 nM.
`CC1(C)CCC(CN2CCN(c3ccc(C(=O)NS(=O)(=O)c4cnc(OCC5CCOCC5)c(Br)c4)c(Oc4ccc5[nH]ccc5c4)c3)CC2)=C(c2ccc(Cl)cc2)C1` [Example 329, N-{[5-bromo-6-(tetrahydro-2H-pyran-4-ylmethoxy)pyridin-3-yl]sulfonyl}-4-(4-{[2-(4-chlorophenyl)-4,4-dimethylcyclohex-1-en-1-yl]methyl}piperazin-1-yl)-2-(1H-indol-5-yloxy)benzamide]: the results for the Ki at GST-Bcl-2 and at GST-Bcl-XL were 0.285 nM and over 660 nM, respectively. Moreover, the EC50 in the assay on FL5.12/Bcl-2 cells amounted to 127 nM.
In the case of `CC(C)Oc1cc(-c2ccc(Cl)cc2)c(CN2CCN(c3ccc(C(=O)NS(=O)(=O)c4ccc(NCC5CCOCC5)c([N+](=O)[O-])c4)c(Oc4ccc5[nH]ccc5c4)c3)CC2)cn1` [Example 330, 4-(4-{[4-(4-chlorophenyl)-6-isopropoxypyridin-3-yl]methyl}piperazin-1-yl)-2-(1H-indol-5-yloxy)-N-({3-nitro-4-[(tetrahydro-2H-pyran-4-ylmethyl)amino]phenyl}sulfonyl)benzamide], the Ki on GST-Bcl-2 is 74.9 nM; at GST-Bcl-XL, over 660 nM. The EC50 in the assay on FL5.12/Bcl-2 cells is over 500 nM.
Consider `CC1(C)CCC(CN2CCN(c3ccc(C(=O)NS(=O)(=O)c4cnc(OCC5CCOCC5)c(-c5nccs5)c4)c(Oc4ccc5[nH]ccc5c4)c3)CC2)=C(c2ccc(Cl)cc2)C1` [Example 331, 4-(4-{[2-(4-chlorophenyl)-4,4-dimethylcyclohex-1-en-1-yl]methyl}piperazin-1-yl)-2-(1H-indol-5-yloxy)-N-{[6-(tetrahydro-2H-pyran-4-ylmethoxy)-5-(1,3-thiazol-2-yl)pyridin-3-yl]sulfonyl}benzamide], for which the results for the Ki at GST-Bcl-2 and on GST-Bcl-XL were 8.27 nM and over 660 nM, respectively. Moreover, the EC50 in the assay with FL5.12/Bcl-2 cells is over 500 nM.
Take `COCCNC(=O)c1ccc(S(=O)(=O)NC(=O)c2ccc(N3CCN(CC4=C(c5ccc(Cl)cc5)CC(C)(C)CC4)CC3)cc2Oc2ccc3[nH]ccc3c2)cc1` [Example 332, 4-(4-{[2-(4-chlorophenyl)-4,4-dimethylcyclohex-1-en-1-yl]methyl}piperazin-1-yl)-2-(1H-indol-5-yloxy)-N-[(4-{[(2-methoxyethyl)amino]carbonyl}phenyl)sulfonyl]benzamide]: the figures for the Ki at GST-Bcl-2 and at GST-Bcl-XL were 12.6 nM and over 660 nM, respectively. Moreover, in the assay with FL5.12/Bcl-2 cells, the EC50 is over 500 nM.
The corresponding values for `CC1(C)CCC(CN2CCN(c3ccc(C(=O)NS(=O)(=O)c4cnc(OCC5CCOCC5)c(C#N)c4)c(Oc4ccc5[nH]ccc5c4)c3)CC2)=C(c2ccc(Cl)cc2)C1` [Example 333, 4-(4-{[2-(4-chlorophenyl)-4,4-dimethylcyclohex-1-en-1-yl]methyl}piperazin-1-yl)-N-{[5-cyano-6-(tetrahydro-2H-pyran-4-ylmethoxy)pyridin-3-yl]sulfonyl}-2-(1H-indol-5-yloxy)benzamide] are 0.089 nM, over 660 nM and 109 nM.
